What all share (assay): inhibition of tumour cell growth, NCI panel, 48 h
Assay [1] has as its system IGROV1 ovarian.
Assay [2] concerns SK-MEL-28 melanoma.
For assay [3], the system named is TK-10 renal.
Assay [4] deals with HCT-15 colon.
Assay [5] relates to OVCAR-4 ovarian.
Assay [6] concerns SNB-19 CNS.
The test system of assay [7] is OVCAR-5 ovarian.
Assay [8] deals with A498 renal.
In assay [9] the test system is OVCAR-3 ovarian.
Assay [10] deals with HT29 colon.

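Dose response: 5 concentrations. Exposure: 48 h. Format: 96-well plates. Endpoint: linear interpolation; highest concentration if not reached. GI50: concentration for 50% inhibition of growth. The concentration for full growth arrest is given as TGI.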

For the molecule `CCC(=O)c1ccc2c(c1)N(CCCN1CCN(CCO)CC1)c1ccccc1S2`, the GI50 in assay [1] is 12.4 µM; in [2], 2.75 µM; in assay [3] it was 13.9 µM; in assay [4], 9.88 µM; in [5], 12.9 µM; in assay [6], 18.5 µM. Also, the GI50 was 15.7 µM in assay [7], 8.33 µM in assay [8], 15.6 µM in assay [9] and 3.98 µM in [10]. Besides, the TGI in assay [1] is 29.1 µM; in assay [2], 7.75 µM; in [3], 27.5 µM; in assay [4] it was 28.3 µM; in assay [5], 25.6 µM; in assay [6] it was 36.1 µM. Besides, the TGI in [7] was found to be 31.9 µM; in [8], 22.3 µM; in assay [9] it was 29.8 µM; in [10] it was 14.7 µM.
Take `CO/C(=N\N=C\c1cccc(C(F)(F)F)c1)c1ccncc1`: the TGI in assay [1] is 79.3 µM; in [2], above 100 µM; in assay [3], above 100 µM; in assay [4], 68.2 µM; in assay [5], above 100 µM; in assay [6], 54.6 µM. Moreover, the TGI in assay [7] is above 100 µM; in [8], 42.8 µM; in [9] it was 84.1 µM; in assay [10], 19 µM. Besides, the figures for the GI50 in assay [4], in [6] and in assay [10] were 4.54 µM, 14.2 µM and 3.47 µM, respectively.
`COc1cc(-c2n/c(=C\c3c(O)[nH]c4ccccc34)cc3c2=Nc2ccccc2-3)cc(OC)c1OC`: the GI50 in [1] is 2 µM; in assay [2], 6.43 µM; in assay [3] it was 2.18 µM; in assay [4] it was 1.72 µM; in assay [5], 0.506 µM; in [6], 2.68 µM. In addition, the GI50 in [7] is 4.32 µM; in assay [8] it was 0.854 µM; in [9], 0.506 µM; in assay [10], 0.407 µM. The TGI in [1] is above 24.5 µM; in assay [2], above 100 µM; in [3] it was 25 µM; in [4], above 100 µM; in assay [5] it was above 100 µM; in assay [6], above 100 µM. For the same molecule, the TGI in assay [7] was above 100 µM; in assay [8], 6.25 µM; in assay [9], 2.6 µM; in [10], 2.53 µM.
As to `O=C(O)CCCNS(=O)(=O)c1ccc2ccccc2c1`, the TGI in assay [1], in assay [2], in assay [3], in [4], in assay [5] and in assay [6] was above 100 µM in each case. Further, the TGI in assay [7], in assay [8], in assay [9] and in assay [10] was above 100 µM in each case.
`O=[N+]([O-])/C=C/c1ccc([N+](=O)[O-])cc1`: the GI50 in [1] is 2.06 µM; in [2], 2.74 µM; in assay [3] it was 2.7 µM; in assay [4] it was 2.02 µM; in assay [5], 3.65 µM; in assay [6], 3.53 µM. Moreover, the GI50 in assay [7] is 4.47 µM; in [8], 2.98 µM; in [9] it was 1.84 µM; in assay [10], 2.07 µM. Further, the TGI was determined as 5.29 µM in assay [1]; 7.57 µM in assay [2]; 6.19 µM in assay [3]; 5.58 µM in assay [4]; 22.3 µM in assay [5]; 14.9 µM in [6]. For the same molecule, the TGI in assay [7] was found to be 15.5 µM; in [8], 10.1 µM; in assay [9], 3.28 µM; in assay [10] it was 5 µM.
Regarding `COc1cc2c3c(n(C)c(=O)c2cc1OC)-c1cc2c(cc1/C3=C/[C@H](N)CCCCN)OCO2`, the GI50 is 1.27 µM in [1]; 1.89 µM in assay [2]; 3.95 µM in assay [3]; 6.8 µM in assay [4]; 2.27 µM in assay [5]; 0.829 µM in [6]. Further, the GI50 in [7] is 0.885 µM; in assay [8], 4.72 µM; in assay [9], 1.45 µM; in [10], 1.65 µM. Further, the TGI in assay [1] is 7.43 µM; in assay [2], 11.2 µM; in assay [3], 21.5 µM; in assay [4] it was above 86.4 µM; in [5], 7.92 µM; in assay [6] it was 20.1 µM. In addition, the TGI is 5.65 µM in [7], 22.7 µM in assay [8], 9.89 µM in assay [9] and above 100 µM in assay [10].
As to `Oc1ccc(CN(Cc2ccc(C(F)(F)F)cc2)Cc2ccc(O)c3ncccc23)c2cccnc12`, the GI50 in assay [1] was 0.0584 µM; in assay [2], 0.341 µM; in assay [3] it was 0.0165 µM; in assay [4], 0.024 µM; in assay [5], 0.0429 µM; in assay [6], 0.0217 µM. The GI50 was 0.0736 µM in assay [7], 0.0409 µM in assay [8], 0.0319 µM in [9] and 0.0717 µM in assay [10]. For the same molecule, the TGI in assay [1], in [2], in assay [3], in assay [4], in assay [5] and in assay [6] was above 100 µM each time. Moreover, the TGI in [7] is above 100 µM; in [8], 97.5 µM; in assay [9], 60.4 µM; in assay [10], above 100 µM.
Take `CC1(C)Cc2c(Br)c(Br)c(Br)c(OCC(O)CN3CCOCC3)c2O1` (configuration not stated): the GI50 in [1] was 14.1 µM; in assay [2], 15 µM; in assay [3], 14.5 µM; in [4], 13.7 µM; in assay [5] it was 19.3 µM; in assay [6], 13.4 µM. Besides, the GI50 is 14.8 µM in [7], 12.6 µM in assay [8], 12.3 µM in assay [9] and 3.73 µM in assay [10]. Moreover, the TGI in [1] was 28.4 µM; in assay [2] it was 31.9 µM; in assay [3] it was 30 µM; in [4] it was 26.8 µM; in [5] it was above 100 µM; in assay [6] it was 26.4 µM. The TGI in [7] is 28.8 µM; in assay [8] it was 26.4 µM; in [9], 28.5 µM; in assay [10], 19 µM.
For the molecule `Cc1cc2nc3c4cccc(O)c4n(CCN(C)C)c3nc2cc1C`, the GI50 is 1.32 µM in assay [1]; 1.78 µM in assay [2]; 4.37 µM in assay [3]; 1.29 µM in [4]; 2.89 µM in assay [5]; 2.62 µM in assay [6]. The GI50 was 2.97 µM in [7], 2.09 µM in [8], 3.11 µM in assay [9] and 2.81 µM in assay [10]. For the same molecule, the TGI in assay [1] is 10.8 µM; in assay [2], 3.34 µM; in assay [3], 19.8 µM; in assay [4], 3.79 µM; in [5], 11.9 µM; in assay [6], 26.3 µM. The TGI in assay [7] is 9.1 µM; in assay [8], 9.08 µM; in assay [9] it was 15.7 µM; in [10] it was 20 µM.
Consider `O=[N+]([O-])c1ccc(N=Nc2c(O)[nH]c3ccccc23)cc1`, for which the TGI was 41.4 µM in assay [1]; above 100 µM in assay [2]; above 51.2 µM in [3]; above 100 µM in assay [4]; 57.6 µM in [5]; above 100 µM in assay [6]. The TGI is above 63.1 µM in assay [7], 39.5 µM in [8], 35.2 µM in assay [9] and above 100 µM in assay [10].
Regarding `CCOC(=O)c1cnc2cc3cccccc3n2c1=O`, the TGI in [1], in [2], in assay [3], in assay [4], in [5] and in assay [6] was above 100 µM in each case. The TGI in assay [7], in assay [8], in assay [9] and in assay [10] was above 100 µM throughout.
Regarding `CCOC(=O)C1=C(c2ccccc2)N(c2ccc(OC)cc2)[C@]2(C#N)C(O)=C(Cl)C(Cl)=C(O)[C@]12C#N`, the GI50 is 21.7 µM in assay [1]; 21.3 µM in assay [2]; 24.3 µM in assay [3]; 19.2 µM in assay [4]; 46.3 µM in [5]; 20.5 µM in [6]. Moreover, the GI50 in assay [7] is 18.5 µM; in [8], 35.8 µM; in [9], 22.7 µM; in [10], 34.8 µM. The TGI in assay [1] is 48.6 µM; in assay [2], 41.9 µM; in assay [3], 74.8 µM; in [4], 40.8 µM; in assay [5] it was above 100 µM; in [6] it was 42.1 µM. Also, the TGI in assay [7] is 39 µM; in assay [8] it was above 100 µM; in [9], 53.2 µM; in assay [10], above 100 µM.
`COc1ccc(-c2ccccc2)cc1-c1c(Nc2cc(Cl)cc(Cl)c2O)c(=O)c1=O`: the GI50 in assay [1] was 1.76 µM; in [2] it was 2.05 µM; in [3], 2.84 µM; in assay [4] it was 1.5 µM; in assay [5], 1.59 µM; in assay [6], 1.84 µM. For the same molecule, the GI50 is 1.77 µM in assay [7], 0.726 µM in assay [8], 1.28 µM in assay [9] and 1.92 µM in assay [10]. In addition, the TGI in assay [1], in [2], in [3], in assay [4], in assay [5] and in assay [6] was above 50 µM throughout. In addition, the TGI in assay [7] was above 50 µM; in assay [8], 2.2 µM; in [9], 3.88 µM; in assay [10], above 50 µM.
`CN(C)CCNC(=O)c1nc([N+](=O)[O-])cn1C`: the TGI in [1], in assay [2], in assay [3], in [4], in [5] and in assay [6] was above 100 µM in each case. Besides, the TGI in assay [7], in [8], in assay [9] and in assay [10] was above 100 µM each time.
As for `COc1ccc(-n2c(C)nc3c(c(C)nn3-c3ccccc3)c2=O)cc1`, the GI50 was 0.0701 µM in assay [1]; 2.07 µM in assay [2]; 9.02 µM in assay [3]; 0.0483 µM in [4]; 1.11 µM in assay [5]; 0.064 µM in [6]. Further, the GI50 in assay [7] was 0.298 µM; in assay [8], 0.0264 µM; in assay [9] it was 0.0414 µM; in [10] it was 0.0467 µM. Moreover, the TGI in [1], in [2], in [3], in assay [4], in assay [5] and in [6] was above 100 µM throughout. The TGI is above 100 µM in assay [7], 0.0843 µM in [8] and above 31.9 µM in [10].
Regarding `CC1=CC2CC(C)C1(C)CCc1ccoc12` (configuration not stated), the TGI in [1], in assay [2], in assay [3], in [4], in assay [5] and in assay [6] was above 100 µM throughout. The TGI in assay [7], in assay [8], in [9] and in assay [10] was above 100 µM each time.
With `Cc1cc2c(cc1Br)C1(C)CCC(C)C1(C)O2` (configuration not stated), the TGI in assay [1], in assay [2], in assay [3], in assay [4], in assay [5] and in assay [6] was above 100 µM each time. In addition, the TGI in [7] is above 100 µM; in [8], above 100 µM; in assay [9], 53.2 µM; in [10], above 100 µM.
For the molecule `COc1ccc(C(O)/C(=C/n2ccnc2)c2ccccc2)cc1OC` (configuration not stated), the TGI in [1], in assay [2], in [3], in assay [4], in assay [5] and in [6] was above 100 µM each time. Besides, the TGI in assay [7], in [8], in assay [9] and in assay [10] was above 100 µM each time.

For the origin of these results see PubChem BioAssay (NCI).
